Test results reported in PubChem BioAssay (NCI).
Where “and” joins values, the source holds several entries; their conditions need not be identical. Equal entries are not always repeated.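 1) Cells in 96-well plates. 2) Compound, 48 h, 5 concentrations. 3) Linear interpolation between surrounding doses. 4) Unreached endpoint = highest concentration. GI50 is the concentration that inhibits growth by half. TGI: concentration producing complete growth inhibition.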

What was measured:
Test in all cases: NCI tumour cell line growth inhibition, 48 h
HCC-2998 colon = system: HCC-2998 colon
SN12C renal = system: SN12C renal
SNB-19 CNS = system: SNB-19 CNS
MOLT-4 leukemia = system: MOLT-4 leukemia
T-47D breast = system: T-47D breast
OVCAR-4 ovarian = system: OVCAR-4 ovarian
OVCAR-8 ovarian = system: OVCAR-8 ovarian
TK-10 renal = system: TK-10 renal
SW-620 colon = system: SW-620 colon
HOP-62 NSCLC = system: HOP-62 NSCLC

Row | Structure (SMILES) | GI50 (HCC-2998 colon) | TGI (HCC-2998 colon) | GI50 (SN12C renal) | TGI (SN12C renal) | GI50 (SNB-19 CNS) | TGI (SNB-19 CNS) | GI50 (MOLT-4 leukemia) | TGI (MOLT-4 leukemia) | GI50 (T-47D breast) | TGI (T-47D breast) | GI50 (OVCAR-4 ovarian) | TGI (OVCAR-4 ovarian) | GI50 (OVCAR-8 ovarian) | TGI (OVCAR-8 ovarian) | GI50 (TK-10 renal) | TGI (TK-10 renal) | GI50 (SW-620 colon) | TGI (SW-620 colon) | GI50 (HOP-62 NSCLC) | TGI (HOP-62 NSCLC)
1 | COc1cc(/C=C2\CCCCC3=C2N=C2SC(C)=CN2C3c2cc(OC)c(OC)c(OC)c2)cc(OC)c1OC (centres undefined) | 74 µM | > 100 µM | 61.8 µM | > 100 µM | > 100 µM | > 100 µM | 0.542 µM | 78 µM | 0.566 µM | > 100 µM | 12.3 µM | > 100 µM | 11.9 µM | > 100 µM | 22.4 µM | > 100 µM | > 100 µM | > 100 µM | 4.7 µM | > 100 µM
2 | CCn1cc(-c2ccnc3[nH]c(-c4cccc(CN(C)C)c4)cc23)c(-c2ccc(NC(=O)N(C)C)cc2)n1 | 7.29 µM and > 10 µM | 21.5 µM and > 10 µM | 1.38 µM and 0.994 µM | > 57.8 µM | 10 µM and > 10 µM | 45 µM and > 10 µM | 2.15 µM and 1.74 µM | 39.3 µM and > 10 µM | 13.3 µM and > 10 µM | 77.3 µM and > 10 µM | 0.479 µM and 3.41 µM | 37.1 µM and > 10 µM | 3.33 µM and 3.61 µM | 23 µM and > 10 µM | 6.77 µM and 1.67 µM | 26 µM and > 10 µM | 0.566 µM and 0.533 µM | 13.7 µM and > 10 µM | 0.385 µM and 1.28 µM | 14.4 µM and > 10 µM
3 | COc1ccc(CNc2c3ccccc3nc3ccccc23)cc1F | 2.07 µM | 5.27 µM | 2.93 µM | 11.9 µM | 3.41 µM | 14.7 µM | 3.28 µM | 14.6 µM | 4.39 µM | 21.5 µM | 3.28 µM | 12.5 µM | 3.52 µM | 19.4 µM | 3.55 µM | 15.7 µM | 2.51 µM | 10.5 µM | 4.2 µM | 20.5 µM
4 | N#CC(I)CS(=O)(=O)c1ccccc1 (centres undefined) | 17.7 µM | 31.8 µM | 16.1 µM | 29.9 µM | > 100 µM | > 100 µM |  |  | 18.4 µM | 42.6 µM | 2.01 µM | 4.69 µM | 17.4 µM | 32.2 µM | 1.75 µM | 3.3 µM | 1.78 µM | 3.49 µM | 19.3 µM | 38.4 µM
5 | Cc1nc2sccn2c1-c1nc2sccn2c1/C=C1/C(=O)Nc2ccccc21 | 8.3 µM | 29.8 µM | 16.8 µM | > 100 µM | 3.52 µM | 23.9 µM |  |  | 3.47 µM | 63.6 µM | 13.8 µM | > 100 µM | 11.4 µM | > 100 µM | 13.5 µM | > 100 µM | 2.32 µM | 7.61 µM | 3.61 µM | > 100 µM
6 | COc1ccc(/C=C\c2cc(OC)c(OC)c(OC)c2)cc1OCC(=O)O |  | > 100 µM |  | > 100 µM |  | > 45.6 µM |  | > 100 µM |  | > 100 µM |  | > 86.1 µM |  | > 58.2 µM |  | > 100 µM |  | > 100 µM |  | > 100 µM
7 | Cc1cccc(NC2=C(Cl)C(=O)c3nc(C)ccc3C2=O)c1 | 1.69 µM | 3.22 µM | 1.17 µM | 2.5 µM | 1.29 µM | 10.3 µM | 2.2 µM | > 100 µM | 1.65 µM | 4.29 µM | 1.2 µM | 2.45 µM |  |  | 2.58 µM | 4.17 µM | 1.64 µM | 4.27 µM | 0.529 µM | 2.88 µM
